# Test system: synchronous late-stage P. falciparum iRBC
# Type: cell-based, Plasmodium falciparum CS2
# Details: late-stage iRBC, 1, 2, 5, 10, 15 or 20 μM, 24 h post-treatment, flow cytometry
substance,measurement,value
FAM-βAla-ILGST*LKG*AQQTSAFLK (sidechain bridge or staple) [JDD scramble],effect on parasite viability at any concentration tested,no effect on parasite viability

# From PMC6461495 (ACS infectious diseases, 2019)
